Data reported in patent US20250221953A1 (The University of Chicago, priority 2022, published 2025).

Test system: Jurkat T cells
Type: cell-based, human
Conditions: IL-2 production level in treated group compared to control group; 48 hours treatment, then anti-CD3/anti-CD28 12 hours
Excerpt: Two preliminary screens were designed and performed.
To construct “blood chemical compound library for cell-based screening purposes, components such as antibodies that are difficult to distinguish due to a wide variety, and some supplements that only function at a whole organism level including fish oils and herbs were excluded. Physiological ranges of serum levels of individual blood chemicals are available in the human metabolome database (https://hmdb.ca/) and applied in the experimental design. For first screen 1a, Jurkat T cells were treated with blood chemical library for 48 hours and then activated with 2.5 μg/mL anti-CD3 and 0.5 μg/mL anti-CD28 antibodies for another 12 hours, followed by measurement of IL-2 level in medium supernatant using ELISA kit (Biolegend). For first screen 1b, 1×10^5 PD-1^+ Jurkat T cells were co-cultured with 2×10^4 H596 (PD-L1^+) cells in a well of 96-well plate for 60 hours, and then activated with 2.5 μg/mL anti-CD3 and 0.5 μg/mL anti-CD28 antibodies for another 12 hours, followed by measurement of IL-2 level in medium supernatant using ELISA kit. Please also refer to Resources Table and Table 1-2 for more details.

Compound	Relative changed percentage (%)
O=C(/C=C/c1ccc(O)c(O)c1)OCCc1ccccc1 [Caffeic acid phenethyl ester]	43.85%
C[N+](C)(C)CC(=O)[O-] [Trimethylglycine]	9.459%
O=C(O)[C@@H]1C[C@@H](O)CN1 [trans-4-Hydroxy-L-proline]	5.281%
CC[C@H](C)[C@H](NC(=O)[C@H](Cc1ccc(O)cc1)NC(=O)[C@@H](NC(=O)[C@H](CCCNC(=N)N)NC(=O)[C@@H](N)CC(=O)O)C(C)C)C(=O)N[C@@H](Cc1cnc[nH]1)C(=O)N1CCC[C@H]1C(=O)N[C@@H](Cc1ccccc1)C(=O)O [ANGIOTENSIN II HUMAN]	17.25%
CC/C=C\C/C=C\C/C=C\C/C=C\C/C=C\CCCCCC(=O)O [Docosapentaenoic acid]	−19.39%
[Br-].[Na+] [SODIUM BROMIDE]	−26.98%
O.OC[C@H]1O[C@@H](O[C@H]2[C@H](O)[C@@H](O)C(O)O[C@@H]2CO)[C@H](O)[C@@H](O)[C@H]1O (stereo partly drawn) [D-LACTOSE MONOHYDRATE]	22.47%
Silicic acid	−1.03%
CC(C)[C@H](N)C(=O)O [L-Valine]	5.296%
C[C@H](O)C(=O)[O-].[Na+] [L(+)LACTIC ACID SODIUM]	5.082%
COc1ccc2[nH]cc(CCNC(C)=O)c2c1 [MELATONIN CRYSTALLINE/melatonin, melatonin]	56.15%
COc1c(O)c(C)c(C/C=C(\C)CC/C=C(\C)CC/C=C(\C)CC/C=C(\C)CC/C=C(\C)CC/C=C(\C)CC/C=C(\C)CC/C=C(\C)CC/C=C(\C)CCC=C(C)C)c(O)c1OC [Ubiquinol]	2.165%
LECYSTOKININ FRAGMENT 26-33 AMIDE NON SULFA	4.556%
N[C@H]1C(O)O[C@H](CO)[C@@H](O)[C@@H]1OS(=O)(=O)O (stereo partly drawn) [D-glucosamine 3-sulfate]	9.801%
Sphingomyelin	95.24%
NC(=O)c1cccnc1 [Niacinamide]	95.23%

Compound	Relative changed percentage (%)
Iron Gluconate	3.271%
Oc1ccc(C=Cc2cc(O)cc(O)c2)cc1 [Resveratrol]	13.16%
C[C@]12CCC(=O)C[C@@H]1CC[C@@H]1[C@@H]2CC[C@]2(C)[C@@H](O)CC[C@@H]12 [5ALPHA-DIHYDROTESTOSTERONE (DIIT)/DIIT, 5ALPHA-DIHYDROTESTOSTERONE]	−3.457%
NC(=O)NCCC[C@H](N)C(=O)O [L-CITRULLINE]	−3.384%
O=C(O)CCCC[C@@H]1SC[C@@H]2NC(=O)N[C@@H]21 [BIOTIN, POWDER,, BIOTIN]	36.45%
O=C([O-])/C=C/C(=O)[O-].[Fe+2] [Ferrous Fumarate]	6.278%
GLYCOGEN	13.75%
CC1=C(/C=C/C(C)=C/C=C/C(C)=C/C=C/C=C(C)/C=C/C=C(C)/C=C/C2=C(C)C[C@@H](O)CC2(C)C)C(C)(C)C[C@H](O)C1 [Zcaxanthin]	−1.652%
CC[N+](CC)(CC)CC.O=S(=O)([O-])O	−35.95%
C/C=C/C=C/C(=O)[O-].[K+] [Potassium sorbate]	−2.288%
O=C([O-])CC(O)(CC(=O)[O-])C(=O)[O-].[Na+].[Na+].[Na+] [Sodium citrate]	13.84%
CC1=CC(=O)C(C(C)C)=CC1=O [Thymoquinone]	4.558%
[O]=[Zn] [Zinc Oxide]	3.627%
Cc1ncc(CO)c(C=O)c1O.Cl [Pyridoxal Hydrochloride]	7.787%
CCCCCCCCCCCCCCCC(=O)O [Palmitic Acid]	−2.643%

Same assay, conditions: IL-2 production level in treated group compared to control group; 48 hours treatment, then anti-CD3/anti-CD28 12 hours; listed as HYALURONIC ACID SODIUM SALT, sodium salt

Compound	Relative changed percentage (%)
Hyaluronic acid sodium salt	−9.738%

Same assay, conditions: IL-2 production level in treated group compared to control group; 48 hours treatment, then anti-CD3/anti-CD28 12 hours; sodium salt

Compound	Relative changed percentage (%)
Hyaluronic acid sodium salt	3.093%
